Key:
Assay type in all cases: in vivo, human
[1] = Phase 1 weekly dosing study: tolerability, adverse events, MTD/DLT
Protocol: (§1) A multicenter, phase 1, weekly dosing, dose escalation study was conducted in pts with refractory or relapsed HL or systemicALCL. The cAC10-MC-vc-PAB-MMAE antibody drug conjugate was administered weekly at doses of 0.4-1.4 mg/kg (2-hr IV infusions). Patients with […] or better after two 21-day cycles (6 doses) were eligible to continue treatment with the antibody drug conjugate.
The grade 4 events were neutropenia (1 subject), and hyperglycemia (1). The grade 3 events were neutropenia (3), diarrhea (1), paresthesia (1), vomiting (1), and leucopenia (1). The grade 2 or lower adverse events were nausea (9), fatigue (8), peripheral neuropathy (6), neutropenia (2), dizziness (4), hyperglycemia (3), and paresthesia (3). The dose limiting toxicity was at 1.4 mg/kg.

[2] = Phase 1 weekly dosing study: exposure (AUC); conditions: weekly doses of 0.4-1.4 mg/kg
Protocol: as §1
(§2) Results: In 34 patients, median age was 34 yrs (range 13-82). Patients received a median of 5 prior therapies; 62% received an autologous SCT. MTD was exceeded at 1.4 mg/kg.

[3] = test system: refractory or relapsed HL or systemicALCL; experiment: Phase 1 weekly dosing, dose escalation study: best clinical response, all evaluable patients; conditions: for Best Clinical Response: CR / Best Clinical Response: PD / Best Clinical Response: PR / Best Clinical Response: SD: number of patients
Protocol: as §1, §2

[4] = test system: sALCL; experiment: Phase 1 weekly dosing study: response rate in sALCL patients; conditions: sALCL patients (4/5), weekly 0.4-1.4 mg/kg
Protocol: as §1, §2

[5] = test system: HL; experiment: Phase 1 weekly dosing study: response rate in HL patients; conditions: weekly 0.4-1.4 mg/kg
Protocol: as §1, §2

[6] = number of subjects among 34 treated patients
[7] = Total of all dose groups 0.4-1.4 mg/kg, N=27
[8] = dose group 0.6 mg/kg weekly, N=3
[9] = dose group 1.0 mg/kg weekly, N=6
[10] = dose group 1.2 mg/kg weekly, N=5
[11] = dose group 1.4 mg/kg weekly, N=3

cAC10-MC-vc-PAB-MMAE: chimeric AC10 antibody conjugated to the drug MMAE through a MC-vc-PAB linker; anti-CD30 antibody-drug conjugate
grade 5 events ([1]; 34 treated patients): no grade 5 events | tolerability ([1]; 34 treated patients): generally well tolerated | grade 2 or lower adverse events: dizziness [1, 6]: 4 | grade 2 or lower adverse events: fatigue [1, 6]: 8 | grade 2 or lower adverse events: hyperglycemia [1, 6]: 3 | grade 2 or lower adverse events: nausea [1, 6]: 9 | grade 2 or lower adverse events: neutropenia [1, 6]: 2 | grade 2 or lower adverse events: paresthesia [1, 6]: 3 | grade 2 or lower adverse events: peripheral neuropathy [1, 6]: 6 | grade 3 events: diarrhea [1, 6]: 1 | grade 3 events: leucopenia [1, 6]: 1 | grade 3 events: neutropenia [1, 6]: 3 | grade 3 events: paresthesia [1, 6]: 1 | grade 3 events: vomiting [1, 6]: 1 | grade 4 events: hyperglycemia [1, 6]: 1 | grade 4 events: neutropenia [1, 6]: 1 subject | dose limiting toxicity (dose at which it occurred) ([1]; weekly dosing): 1.4 mg/kg | MTD (exceeded at) ([1]; weekly dosing, 2-hr IV infusions, 34 patients): < 1.4 mg/kg | Exposure (AUC) [2]: increased relative to dose level | observed time to response ([3]; 1 mg/kg dose, weekly): approximately 8 wks | Complete Response ([3]; All Patients (10/27), weekly 0.4-1.4 mg/kg): 37% (10/27) | Overall Response Rate (CR + PR) ([3]; All Patients (13/27), weekly 0.4-1.4 mg/kg): 48% (13/27) | Tumor Reductions ([3]; All Patients (22/27), weekly 0.4-1.4 mg/kg): 81% (22/27) | CRs observed ([3]; at higher doses): Multiple | Best Clinical Response: CR [3, 7]: 10 ^ | Best Clinical Response: PD [3, 7]: 3 | Best Clinical Response: PR [3, 7]: 3 | Best Clinical Response: SD [3, 7]: 22 | Best Clinical Response: SD ([3]; dose group 0.4 mg/kg weekly, N=4, includes 1 patient with ALCL): 4^+ | Best Clinical Response: PD [3, 8]: 1 | Best Clinical Response: PR [3, 8]: 1 | Best Clinical Response: SD [3, 8]: 1 | Best Clinical Response: PD ([3]; dose group 0.8 mg/kg weekly, N=6): 1 | Best Clinical Response: SD ([3]; dose group 0.8 mg/kg weekly, N=6, 1 pediatric patient): 1^P | Best Clinical Response: CR ([3]; dose group 0.8 mg/kg weekly, N=6, includes 2 patients with ALCL): 4^++ | Best Clinical Response: PR [3, 9]: 1 | Best Clinical Response: SD [3, 9]: 1 | Best Clinical Response: CR ([3]; dose group 1.0 mg/kg weekly, N=6, includes 2 patients with ALCL): 4^++ | Best Clinical Response: PD [3, 10]: 1 | Best Clinical Response: PR [3, 10]: 1 | Best Clinical Response: SD ([3]; dose group 1.2 mg/kg weekly, N=5, includes 1 pediatric patient): 3^P | Best Clinical Response: CR [3, 11]: 2^ | Best Clinical Response: SD [3, 11]: 1 | time within which multiple complete responses were observed ([3]; phase I study, weekly regimen): ≤ 8 weeks | Complete Response [4]: 80% (4/5) | Overall Response Rate (CR + PR) [4]: 80% (4/5) | Complete Response ([5]; HL Patients (6/22)): 27% (6/22) | Overall Response Rate (CR + PR) ([5]; HL Patients (9/22)): 41% (9/22)

Source: US9713648B2, “Weekly dosing regimens for anti-CD30 VC-PAB-MMAE antibody drug-conjugates” (Seattle Genetics, Inc., priority 2009, dated 2017)
